Measurements as given in patent US20210023120A1, “COMPOSITIONS FOR THE DELIVERY OF tRNA AS NANOPARTICLES AND METHODS OF USE THEREWITH” (The Board of Regents of the University of Texas System, priority 2016, published 2021).

System: p53
Assay: Nanoparticle carrier screen in Calu6 cells (p53 Western blot)
Type: cell-based
Settings: nmP53 (R196X), exogenous tRNAArg/OP, 48 hr exposure, FIGS. 6B, 9, 10, 12
Experimental: Calu6 cells were seeded at a density of 500,000 cells per well in a 6-well format and allowed to attach over night. For plasmid DNA, 1 μg was transfected using 3 μl of Lipofectamine 2000 using manufacturer recommend protocols. For tRNA^Arg/RNAiMax, 4 μg was transfected using 3 μl of RNAiMax using manufacturer recommended protocols. Particles were diluted in Opti-MEM (Invitrogen), G418 (50 μg) and PTC124 ([…]) was added directly to the media. Nanoparticles were prepared by mixing all delivery components in ethanol, followed by rapid mixing with tRNA in 10 mM citrate buffer pH 4.3, such that the final mole ratio was 25:1 carrier:siRNA, and the carrier mixture of the formulation consisted of molar ratios 50:38:10:2 carrier: cholesterol: DSPC: PEG-lipid. […] After 48 hr, cells were lysed directly in 2× Sample Buffer ((Tris-HCL 250 mM, pH 6.8, 20% Glycerol, 2.5% SDS, 0.1% Bromophenol blue). Cell lysate proteins were separated by electrophoresis on 10% (wt/vol) polyacrylamide gels using a Tris-glycine buffering system and transferred to polyyinylidene fluoride Immobilon membranes (EMD Millipore). Western blot analysis was performed using primary p53 antibody (Santa Cruz Biotechnology, Inc) actin antibody (EMD Millipore), and secondary antibody IRdye-68ORD (Li-Cor) and imaged/quantified using a Li-Cor Odyssey CLx (Li-Cor).

| Structure (SMILES) | p53 expression (Western blot) |
| --- | --- |
| CN[C@@H]1[C@@H](O)[C@@H](O[C@@H]2[C@@H](O)[C@H](O[C@H]3O[C@H]([C@@H](C)O)[C@@H](O)[C@H](O)[C@H]3N)[C@@H](N)C[C@H]2N)OC[C@]1(C)O [G418] | only minimal p53 expression |
| O=C(O)c1cccc(-c2noc(-c3ccccc3F)n2)c1 [PTC124] | only minimal p53 expression |
